These results are taken from patent US8524726B2, “Amido derivatives and their use as positive allosteric modulators of metabotropic glutamate receptors” (Addex Pharma, SA, priority 2007, dated 2013).

Structures are written as SMILES. Bounds are passed on as bounds.

Series [1] has as its target T1, recombinant human mGluR4a receptors (Homo sapiens, UniProt Q14833).
T1 construct: expressed in transfected cells
Briefly: Fluorescent cell based Ca2+ mobilization assay (FLIPR) on HEK-293 cells expressing human mGluR4. The conditions noted are these: HEK-293 cells expressing hmGluR4, Fluo-4, potentiation of EC25 glutamate; mean of at least three independent experiments in duplicate; read-out: Ca2+ Flux (mean EC50). The text has this:
mGluR4 Assay on HEK-Expressing Human mGluR4
Their activity was examined on recombinant human mGluR4a receptors by detecting changes in intracellular Ca^2+ concentration, using the fluorescent Ca^2+-sensitive dye Fluo-4-(AM) and a Fluorometric Imaging Plate Reader (FLIPR, Molecular Devices, Sunnyvale, Calif.)
Transfection and Cell Culture
The cDNA encoding the human metabotropic glutamate receptor (hmGluR4), (accession number NM_000841.1, NCBI Nucleotide database browser), was subcloned into an expression vector containing also the hygromycin resistance gene. In parallel, the cDNA encoding a G protein allowing redirection of the activation signal to intracellular calcium flux was subcloned into a different expression vector containing also the puromycin resistance gene. […] Positive cellular clones expressing hmGluR4 were identified in a functional assay measuring changes in calcium fluxes in response to glutamate or selective known mGluR4 orthosteric agonists and antagonists
HEK-293 cells expressing hmGluR4 were maintained in media containing DMEM, dialyzed Fetal Calf Serum (10%), Glutamax™ (2 mM), Penicillin (100 units/ml), Streptomycin (100 μg/ml), Geneticin (100 μg/ml) and Hygromycin-B (40 μg/ml) and puromycin (1 μg/ml) at 37° C./5% CO2.
Fluorescent Cell Based-Ca^2+ Mobilization Assay
Human mGluR4 HEK-293 cells were plated out 24 hours prior to FLIPR^384 assay in black-walled, clear-bottomed, poly-L-ornithine-coated 384-well plates at a density of 25,000 cells/well in a glutamine/glutamate free DMEM medium containing foetal bovine serum (10%), penicillin (100 units/ml) and streptomycin (100 μg/ml) at 37° C./5% CO2.
On the day of the assay, the medium was aspirated and the cells were loaded with a 3 μM solution of Fluo-4-AM (LuBioScience, Lucerne, Switzerland) in 0.03% pluronic acid. After 1 hour at 37° C./5% CO2, the non incorporated dye was removed by washing cell plate with the assay buffer and the cells were left in the dark at room temperature for six hours before testing. All assays were performed in a pH 7.4 buffered-solution containing 20 mM HEPES, 143 mM NaCl, 6 mM KCl, 1 mM MgSO4, 1 mM CaCl2, 0.125 mM sulfapyrazone, 0.1% glucose.
After 10 s of basal fluorescence recording, various concentrations of the compounds of the invention were added to the cells. Changes in fluorescence levels were first monitored for 180 s in order to detect any agonist activity of the compounds. Then the cells were stimulated by an EC25 glutamate concentration for an additional 110 s in order to measure enhancing activities of the compounds of the invention. EC25 glutamate concentration is the concentration giving 25% of the maximal glutamate response.
The concentration-response curves of representative compounds of the present invention were generated using the Prism GraphPad software (Graph Pad Inc, San Diego, USA). The curves were fitted to a four-parameter logistic equation: (Y=Bottom+(Top-Bottom)/(1+10^((Log EC50−X)*Hill Slope) allowing determination of EC50 values.
(Calcium flux is commonly read through the fluorescence of an indicator in the cells.)

T1 sequence (Q14833 33-912): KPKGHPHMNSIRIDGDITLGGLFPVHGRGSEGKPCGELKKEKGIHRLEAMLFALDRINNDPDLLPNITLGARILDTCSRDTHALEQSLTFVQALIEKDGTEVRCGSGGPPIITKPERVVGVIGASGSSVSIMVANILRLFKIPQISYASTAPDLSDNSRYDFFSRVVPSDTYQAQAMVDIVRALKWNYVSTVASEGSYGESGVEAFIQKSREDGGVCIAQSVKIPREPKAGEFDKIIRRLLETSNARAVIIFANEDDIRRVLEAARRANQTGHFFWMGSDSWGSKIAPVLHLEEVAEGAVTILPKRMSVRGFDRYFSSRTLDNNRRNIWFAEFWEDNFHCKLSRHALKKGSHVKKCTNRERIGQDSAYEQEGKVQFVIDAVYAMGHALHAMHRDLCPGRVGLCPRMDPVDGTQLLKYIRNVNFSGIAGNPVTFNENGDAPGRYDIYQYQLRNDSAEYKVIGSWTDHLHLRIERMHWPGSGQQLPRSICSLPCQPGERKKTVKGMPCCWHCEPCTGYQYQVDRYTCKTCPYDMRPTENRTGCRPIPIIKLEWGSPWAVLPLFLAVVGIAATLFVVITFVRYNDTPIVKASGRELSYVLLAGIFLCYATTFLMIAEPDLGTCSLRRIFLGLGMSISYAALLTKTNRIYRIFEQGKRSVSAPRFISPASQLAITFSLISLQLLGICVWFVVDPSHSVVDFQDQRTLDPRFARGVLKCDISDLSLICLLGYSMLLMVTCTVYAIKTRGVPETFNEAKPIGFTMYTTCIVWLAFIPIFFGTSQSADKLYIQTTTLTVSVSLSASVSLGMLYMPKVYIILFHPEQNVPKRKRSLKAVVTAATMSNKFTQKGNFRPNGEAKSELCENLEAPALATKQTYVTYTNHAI

Broadly, the melting point is the temperature of the solid-liquid transition. Usually EC50 stands for the concentration giving half of the maximal effect. As to `O=C(Nc1cccc(Cl)c1)c1cccs1` [Compound 1-2, N-(3-Chlorophenyl)thiophene-2-carboxamide], the melting point fell in the range of 139 to 140 °C. For the same molecule, in series [1], the EC50 was 1000 to 10000 nM.

For the molecule `O=C(Nc1cccc(Cl)c1)c1ccccn1` [Compound 1-3, N-(3-Chlorophenyl)picolinamide], the EC50 in series [1] is less than 1000 nM. For the molecule `O=C(Nc1cccc(F)c1)c1ccccn1` [Compound 1-4, N-(3-Fluorophenyl)picolinamide], the melting point is 74 to 75 °C.

As to `O=C(Nc1cccc(Cl)c1)c1ccc[nH]1` [Compound 1-5, N-(3-Chlorophenyl)-1H-pyrrole-2-carboxamide], the melting point lay in the range of 138 to 140 °C. In addition, the EC50 in series [1] was in the range of 1000 to 10000 nM. Molecule `O=C(COc1cccc(NC(=O)c2ccco2)c1)c1ccc(F)cc1` [Compound 2-2, Furan-2-carboxylic acid {3-[2-(4-fluoro-phenyl)-2-oxo-ethoxy]-phenyl}-amide] came in with a melting point of 148 to 149 °C.

In the case of `COc1cccc(NC(=O)c2csc(C)n2)c1` [Compound 2-4, N-(3-Methoxyphenyl)-2-methylthiazole-4-carboxamide], the melting point fell in the range of 87 to 89 °C. In addition, the concentration for a half-maximal effect (EC50) in series [1] was 1000 to 10000 nM. The like results for `COc1cccc(NC(=O)c2nccs2)c1` [Compound 2-5, N-(3-Methoxyphenyl)thiazole-2-carboxamide] were, in that order, 53 to 57 °C and 1000 to 10000 nM. The molecule `O=C(COc1cccc(NC(=O)c2ccccn2)c1)c1cccc(Cl)c1` [Compound 2-7, N-(3-(2-(3-Chlorophenyl)-2-oxoethoxy)phenyl)picolinamide] registered a melting point of 139 to 140 °C. Further, in series [1], the EC50 lay in the range of 1000 to 10000 nM. As for `O=C(Nc1cccc(OCCCc2ccccc2)c1)c1ccccn1` [Compound 2-8, N-(3-(3-Phenylpropoxy)phenyl)picolinamide], the melting point lay within 49 to 51 °C. Further, in series [1], the EC50 lay in the range of 1000 to 10000 nM.

Molecule `COc1ccccc1C(=O)COc1cccc(NC(=O)c2ccccn2)c1` [Compound 2-9, N-(3-(2-(2-Methoxyphenyl)-2-oxoethoxy)phenyl)picolinamide] yielded a melting point of 136 to 137 °C. In addition, the EC50 in series [1] was 1000 to 10000 nM. The like results for `COc1cccc(C(=O)COc2cccc(NC(=O)c3ccccn3)c2)c1` [Compound 2-10, N-(3-(2-(3-Methoxyphenyl)-2-oxoethoxy)phenyl)picolinamide] were, in that order, 114.5 to 115.5 °C and 1000 to 10000 nM.

On to `O=C(COc1cccc(NC(=O)c2ccccn2)c1)c1cccc(F)c1` [Compound 2-11, N-(3-(2-(3-Fluorophenyl)-2-oxoethoxy)phenyl)picolinamide], for which the melting point was 118 to 121 °C. Further, the EC50 in series [1] lay within 1000 to 10000 nM. Consider `O=C(Nc1cccc(OCC(=O)c2ccccc2Cl)c1)c1ccccn1` [Compound 2-12, N-(3-(2-(2-Chlorophenyl)-2-oxoethoxy)phenyl)picolinamide], for which the EC50 in series [1] lay within 1000 to 10000 nM. With `COc1cccc(NC(=O)c2cc(C)on2)c1` [Compound 2-13, N-(3-Methoxyphenyl)-5-methylisoxazole-3-carboxamide], the melting point was in the range of 98 to 101 °C. Besides, the EC50 in series [1] fell in the range of 1000 to 10000 nM.

Consider `COc1cc(NC(=O)c2ccccn2)ccc1F` [Compound 2-14, N-(4-Fluoro-3-methoxyphenyl)picolinamide], for which the EC50 in series [1] was less than 1000 nM.

Molecule `O=C(Nc1cccc(OCC(=O)c2ccccc2F)c1)c1ccccn1` [Compound 2-15, N-(3-(2-(2-Fluorophenyl)-2-oxoethoxy)phenyl)picolinamide] showed a melting point of 98 to 101 °C. For the same molecule, in series [1], the EC50 lay in the range of 1000 to 10000 nM.

As for `COc1cccc(NC(=O)c2ccncn2)c1` [Compound 2-16, N-(3-Methoxyphenyl)pyrimidine-4-carboxamide], the melting point lay in the range of 119 to 122 °C. For the same molecule, the EC50 in series [1] is 1000 to 10000 nM. The like results for `COc1cc(NC(=O)c2cccc(F)n2)ccc1F` [Compound 2-17, 6-Fluoro-N-(4-fluoro-3-methoxyphenyl)picolinamide] were, in that order, 124 to 125 °C and 1000 to 10000 nM. The corresponding values for `COc1cc(NC(=O)c2nccs2)ccc1F` [Compound 2-18, N-(4-Fluoro-3-methoxyphenyl)thiazole-2-carboxamide] are 103 to 105 °C and 1000 to 10000 nM. The corresponding values for `O=C(Nc1ccc(Oc2ncccn2)c(Cl)c1)c1ccccn1` [Compound 3-2, N-(3-Chloro-4-(pyrimidin-2-yloxy)phenyl)picolinamide] are 195 to 197 °C and less than 1000 nM. Take `Cc1nc(C(=O)Nc2ccc(Oc3ncccn3)c(Cl)c2)cs1` [Compound 3-3, N-(3-Chloro-4-(pyrimidin-2-yloxy)phenyl)-2-methylthiazole-4-carboxamide]: the melting point is 142 to 150 °C. In turn, `O=C(Nc1ccc(Oc2ncccn2)c(Cl)c1)c1nccs1` [Compound 3-4, N-(3-Chloro-4-(pyrimidin-2-yloxy)phenyl)thiazole-2-carboxamide] registered a melting point of 154 °C. In addition, the EC50 in series [1] lay in the range of 1000 to 10000 nM.

Regarding `O=C(Nc1ccc(Oc2ccccn2)c(Cl)c1)c1ccccn1` [Compound 3-5, N-(3-Chloro-4-(pyridin-2-yloxy)phenyl)picolinamide], the melting point was 254 to 260 °C. In addition, the EC50 in series [1] is less than 1000 nM. `O=C(Nc1ccc(Oc2cc(F)ccc2F)c(Cl)c1)c1ccccn1` [Compound 3-6, N-(3-Chloro-4-(2,5-difluorophenoxy)phenyl)picolinamide] showed a melting point of 102 to 104 °C. The molecule `O=C(Nc1ccc(Oc2ccc(C(F)(F)F)cn2)c(Cl)c1)c1ccccn1` [Compound 3-8, N-(3-Chloro-4-(5-(trifluoromethyl)pyridin-2-yloxy)phenyl)picolinamide] registered a melting point of 92 to 94 °C. For the same molecule, in series [1], the EC50 is 1000 to 10000 nM. With `COc1cc(NC(=O)c2ccccn2)ccc1Oc1ncccn1` [Compound 3-9, N-(3-Methoxy-4-(pyrimidin-2-yloxy)phenyl)picolinamide], the melting point lay within 203 to 205 °C.

The molecule `O=C(Nc1ccc(Oc2cccc(F)c2)c(Cl)c1)c1ccccn1` [Compound 3-12, N-(3-Chloro-4-(3-fluorophenoxy)phenyl)picolinamide] had a melting point of 78 to 80 °C. On the same count and under the same terms, then `O=C(Nc1ccc(Oc2ccc(F)cc2)c(Cl)c1)c1ccccn1` [Compound 3-13, N-(3-Chloro-4-(4-fluorophenoxy)phenyl)picolinamide], with 104 to 105 °C.

On to `N#Cc1ccc(Oc2ccc(NC(=O)c3ccccn3)cc2Cl)cc1` [Compound 3-15, N-(3-Chloro-4-(4-cyanophenoxy)phenyl)picolinamide], for which the melting point fell in the range of 157 to 159 °C. Also, the EC50 in series [1] is less than 1000 nM. Turning to `N#Cc1cccnc1Oc1ccc(NC(=O)c2ccccn2)cc1Cl` [Compound 3-16, N-(3-Chloro-4-(3-cyanopyridin-2-yloxy)phenyl)picolinamide], the melting point was 223 to 228 °C. Still for that read-out and setting: as for `CC(C)C(=O)N1CCN(c2ccc(NC(=O)c3ccccn3)cc2Cl)CC1` [Compound 4-2, N-(3-Chloro-4-(4-isobutyrylpiperazin-1-yl)phenyl)picolinamide], the figure is 156 to 158 °C. In the case of `CCC(=O)N1CCN(c2ccc(NC(=O)c3ccccn3)cc2Cl)CC1` [Compound 4-3, N-(3-Chloro-4-(4-propionylpiperazin-1-yl)phenyl)picolinamide], the melting point is 176 to 179 °C. Also, the EC50 in series [1] lay within 1000 to 10000 nM. The corresponding values for `O=C(Nc1ccc(N2CCN(C(=O)c3ccccc3)CC2)c(Cl)c1)c1ccccn1` [Compound 4-4, N-(4-(4-Benzoylpiperazin-1-yl)-3-chlorophenyl)picolinamide] are 161 to 163 °C and 1000 to 10000 nM. The corresponding values for `O=C(Nc1ccc(N2CCN(Cc3ccccc3)CC2)c(Cl)c1)c1ccccn1` [Compound 4-5, N-(4-(4-Benzylpiperazin-1-yl)-3-chlorophenyl)picolinamide] are 92 to 94 °C and 1000 to 10000 nM.
